Experimental data from the supplement of paper PMC6045584.
± gives the standard deviation of the averaged measurements.

Experiments:
[1] = compound: CCCS(=O)(=O)Nc1ccc(F)c(C(=O)c2c[nH]c3ncc(Cl)cc23)c1F [PLX-4720]; assay: surviving fraction relative to DMSO-only wells; higher = less growth inhibition; settings: exposure time: 5 days
In short: (§1)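 Tumour cell lines in log phase were plated in 384-well plates at 250–500 cells per well, then, after 24 hours, exposed continuously for five days to inhibitors at 0.5, 1, 5, 10, 50, 100, 500 and 1000 nM. Viability came from CellTiter-Glo luminescence, and surviving fraction is that signal normalised to the median of DMSO-only wells. Plates were read after 10 minutes at room temperature, and each line, screened three times, was kept only when replicate Pearson r was >0.7 and median Z' was >0.3.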

[2] = compound: Cc1nc(Nc2n[nH]c3c2CN(C(=O)N[C@H](CN(C)C)c2ccccc2)C3(C)C)c2sccc2n1; assay: as above; settings: exposure time: 5 days
In short: as §1

SYO1 SYNOVIAL
surviving fraction ([1]; 0.5 nM): 0.336 ± 0.15
surviving fraction ([1]; 1 nM): 0.772 ± 0.089
surviving fraction ([1]; 5 nM): 0.658 ± 0.089
surviving fraction ([1]; 10 nM): 0.809 ± 0.043
surviving fraction ([1]; 50 nM): 0.408 ± 0.14
surviving fraction ([1]; 100 nM): 0.942 ± 0.017
surviving fraction ([1]; 500 nM): 0.865 ± 0.11
surviving fraction ([1]; 1000 nM): 0.988 ± 0.061
surviving fraction ([2]; 0.5 nM): 0.65 ± 0.017
surviving fraction ([2]; 1 nM): 0.486 ± 0.01
surviving fraction ([2]; 5 nM): 0.269 ± 0.023
surviving fraction ([2]; 10 nM): 0.214 ± 0.0035
surviving fraction ([2]; 50 nM): 0.166 ± 0.016
surviving fraction ([2]; 100 nM): 0.129 ± 0.013
surviving fraction ([2]; 500 nM): 0.0548 ± 0.0036
surviving fraction ([2]; 1000 nM): 0.0347 ± 0.0023

T47D BREAST
surviving fraction ([1]; 0.5 nM): 0.81 ± 0.036
surviving fraction ([1]; 1 nM): 0.921 ± 0.0064
surviving fraction ([1]; 5 nM): 0.919 ± 0.043
surviving fraction ([1]; 10 nM): 0.953 ± 0.025
surviving fraction ([1]; 50 nM): 0.914 ± 0.015
surviving fraction ([1]; 100 nM): 1.04 ± 0.06
surviving fraction ([1]; 500 nM): 0.994 ± 0.021
surviving fraction ([1]; 1000 nM): 1.01 ± 0.043
surviving fraction ([2]; 0.5 nM): 1.16 ± 0.034
surviving fraction ([2]; 1 nM): 1.12 ± 0.025
surviving fraction ([2]; 5 nM): 0.845 ± 0.033
surviving fraction ([2]; 10 nM): 0.879 ± 0.023
surviving fraction ([2]; 50 nM): 0.887 ± 0.032
surviving fraction ([2]; 100 nM): 0.87 ± 0.014
surviving fraction ([2]; 500 nM): 0.776 ± 0.013
surviving fraction ([2]; 1000 nM): 0.528 ± 0.04

U2OS BONE
surviving fraction ([1]; 0.5 nM): 0.914 ± 0.029
surviving fraction ([1]; 1 nM): 0.9627 ± 0.0058
surviving fraction ([1]; 5 nM): 0.949 ± 0.007
surviving fraction ([1]; 10 nM): 0.978 ± 0.035
surviving fraction ([1]; 50 nM): 1.06 ± 0.054
surviving fraction ([1]; 100 nM): 1.08 ± 0.059
surviving fraction ([1]; 500 nM): 1.07 ± 0.026
surviving fraction ([1]; 1000 nM): 1.1 ± 0.039
surviving fraction ([2]; 0.5 nM): 0.974 ± 0.038
surviving fraction ([2]; 1 nM): 0.901 ± 0.058
surviving fraction ([2]; 5 nM): 0.631 ± 0.016
surviving fraction ([2]; 10 nM): 0.453 ± 0.025
surviving fraction ([2]; 50 nM): 0.188 ± 0.025
surviving fraction ([2]; 100 nM): 0.142 ± 0.015
surviving fraction ([2]; 500 nM): 0.075 ± 0.0027
surviving fraction ([2]; 1000 nM): 0.0633 ± 0.0015

VCAP PROSTATE
surviving fraction ([1]; 0.5 nM): 0.915 ± 0.03
surviving fraction ([1]; 1 nM): 0.942 ± 0.048
surviving fraction ([1]; 5 nM): 0.934 ± 0.031
surviving fraction ([1]; 10 nM): 0.986 ± 0.074
surviving fraction ([1]; 50 nM): 0.966 ± 0.01
surviving fraction ([1]; 100 nM): 1.11 ± 0.14
surviving fraction ([1]; 500 nM): 1.08 ± 0.061
surviving fraction ([1]; 1000 nM): 1.07 ± 0.023
surviving fraction ([2]; 0.5 nM): 0.665 ± 0.11
surviving fraction ([2]; 1 nM): 0.496 ± 0.006
surviving fraction ([2]; 5 nM): 0.428 ± 0.025
surviving fraction ([2]; 10 nM): 0.398 ± 0.025
surviving fraction ([2]; 50 nM): 0.451 ± 0.084
surviving fraction ([2]; 100 nM): 0.397 ± 0.022
surviving fraction ([2]; 500 nM): 0.245 ± 0.036
surviving fraction ([2]; 1000 nM): 0.0417 ± 0.0063

VP229 BREAST
surviving fraction ([1]; 0.5 nM): 0.861 ± 0.03
surviving fraction ([1]; 1 nM): 0.838 ± 0.056
surviving fraction ([1]; 5 nM): 0.861 ± 0.055
surviving fraction ([1]; 10 nM): 0.887 ± 0.019
surviving fraction ([1]; 50 nM): 1.03 ± 0.065
surviving fraction ([1]; 100 nM): 1.1 ± 0.068
surviving fraction ([1]; 500 nM): 1.248 ± 0.0097
surviving fraction ([1]; 1000 nM): 1.25 ± 0.13
surviving fraction ([2]; 0.5 nM): 1.23 ± 0.085
surviving fraction ([2]; 1 nM): 1.15 ± 0.18
surviving fraction ([2]; 5 nM): 0.684 ± 0.099
surviving fraction ([2]; 10 nM): 0.597 ± 0.089
surviving fraction ([2]; 50 nM): 0.484 ± 0.055
surviving fraction ([2]; 100 nM): 0.386 ± 0.036
surviving fraction ([2]; 500 nM): 0.301 ± 0.031
surviving fraction ([2]; 1000 nM): 0.311 ± 0.026

YAMATO SYNOVIAL
surviving fraction ([1]; 0.5 nM): 0.15 ± 0.019
surviving fraction ([1]; 1 nM): 0.825 ± 0.054
surviving fraction ([1]; 5 nM): 0.619 ± 0.023
surviving fraction ([1]; 10 nM): 0.919 ± 0.055
surviving fraction ([1]; 50 nM): 0.281 ± 0.024
surviving fraction ([1]; 100 nM): 1.28 ± 0.086
surviving fraction ([1]; 500 nM): 0.874 ± 0.083
surviving fraction ([1]; 1000 nM): 1.24 ± 0.091
surviving fraction ([2]; 0.5 nM): 0.784 ± 0.03
surviving fraction ([2]; 1 nM): 1.19 ± 0.074
surviving fraction ([2]; 5 nM): 0.432 ± 0.036
surviving fraction ([2]; 10 nM): 1.35 ± 0.091
surviving fraction ([2]; 50 nM): 0.354 ± 0.0056
surviving fraction ([2]; 100 nM): 1.42 ± 0.17
surviving fraction ([2]; 500 nM): 0.353 ± 0.024
surviving fraction ([2]; 1000 nM): 1.39 ± 0.074

ZR751 BREAST
surviving fraction ([1]; 0.5 nM): 0.774 ± 0.021
surviving fraction ([1]; 1 nM): 0.834 ± 0.051
surviving fraction ([1]; 5 nM): 0.768 ± 0.062
surviving fraction ([1]; 10 nM): 0.811 ± 0.078
surviving fraction ([1]; 50 nM): 0.783 ± 0.08
surviving fraction ([1]; 100 nM): 0.826 ± 0.099
surviving fraction ([1]; 500 nM): 0.949 ± 0.086
surviving fraction ([1]; 1000 nM): 0.947 ± 0.061
surviving fraction ([2]; 0.5 nM): 0.872 ± 0.058
surviving fraction ([2]; 1 nM): 0.818 ± 0.052
surviving fraction ([2]; 5 nM): 0.575 ± 0.056
surviving fraction ([2]; 10 nM): 0.515 ± 0.0069
surviving fraction ([2]; 50 nM): 0.427 ± 0.029
surviving fraction ([2]; 100 nM): 0.463 ± 0.026
surviving fraction ([2]; 500 nM): 0.492 ± 0.041
surviving fraction ([2]; 1000 nM): 0.462 ± 0.037
